Experiments:
[1] = previously shown; cited from earlier work
[2] = test system: N-methyl-D-aspartate (NMDA) induced lethality; experiment: Protection against NMDA induced lethality; assay type: in vivo, Balb/c male mice; conditions: drug 10 mg/kg, 90 min before NMDA
Description: (§1) The present compounds are active in several tests generally used to indicate neuroprotection.
(§2) Balb/c male mice were administered with the drug 90 min before treatment with NMDA (125 mq/kg) or 120 min before picrotoxin (8 mg/kg) in emulsion, s.c. The survival rate shown in Table VI indicates number of survivors out of total number of animals used.

[3] = test system: forebrain ischemia; experiment: Protection against forebrain ischemia (unilateral occlusion); assay type: in vivo; conditions: mongolian gerbils, result in words
Text: as §1

[4] = test system: peritoneal leukocytes; experiment: Leukocyte adhesion assay (peritoneal cells after oral dosing); assay type: in vivo, female CD-1 mice; conditions: cells collected 90 min after dosing; for number of adhering cells: ± S.D
Description: Leukocytes are thought to be major contributors to the inflammatory response and their ability in this regard is reflected by their adhesiveness to a variety of substrates [Audette, C. A., et al., ibid.] Sci., 47, 753 (1990)].
The details of the leukocytes adhesion assay have been previously reported [Audette et al., ibid.]. In brief, peritoneal cells from female CD-1 mice (20-25 g) were collected at 90 min following oral administration of the drug or vehicle (50 μl peanut oil). Cells from each treatment group (N=3) were pooled and equal numbers aliquoted into six culture dish wells (1.9 cm^2 area). After incubation for 18-20 hours, non-adhering cells were removed and the remaining cell monolayer quantitated by DNA measurement.

[5] = test system: PAF-Induced Paw Edema; experiment: Inhibition of PAF-induced paw edema; assay type: in vivo, CD-1 female mice; conditions: for Inhibition of PAF-Induced Paw Edema: vs vehicle treated controls, 15 min after PAF
Description: A second model, in which edema is induced by platelet activating factor (PAF), was used to evaluate activity.
(§3) The conditions were based on those reported previously [Calhoun et al., ibid.]. […] PAF (1.0 μq) or arachidonic acid (1.0 mg) dissolved in 50 μl of 5% ethanol in saline, were injected s.c. into the plantar surface of the right hind paw of CD-1 female mice (20-25 g) obtained from Charles River Labs. The mice were under ether anesthesia during this procedure. The volume of the right foot was measured to the level of the lateral malleotis by water displacement before treatment and 15 min after PAF injection or 30 min after archidonate injection. The change in paw volume was calculated for each mouse and the significance for each group was determined by a paired t test analysis.

[6] = test system: mouse hot plate test; experiment: Hot plate test for antinociception (55° C.); assay type: in vivo; conditions: 90 min before test
Description: In the hot plate test for analgesia an aluminum surface was maintained at 55±1° C. by circulating water through passages in the metal. A clear plastic cylinder 18 cm in diameter and 26 cm high was placed on the surface to prevent escape. The end point was taken when the mouse either performed a hind paw lick or jumped off the surface; in no case were the animals kept for more than 30 secs on the plate. Mice were never used more than one time; control values were always measured at 11 a.m. and test values at 2 p.m. The drugs were administered orally 90 min before the hot plate test. The percent change in response time (latency) was calculated by comparing the mean of the control values with the mean of the test values and statistical signficance determined by a paired tetest analysis using software (Statview, 512) from Brainpower, Inc., Calabasas, Calif.

[7] = test system: Picrotoxin induced lethality; experiment: Protection against picrotoxin induced lethality; assay type: in vivo, Balb/c male mice; conditions: drug 10 mg/kg, 120 min before picrotoxin (8 mg/kg)
Description: as §1, §2

[8] = test system: Arachidonic Acid-Induced Paw Edema; experiment: Inhibition of arachidonic acid-induced paw edema; assay type: in vivo, CD-1 female mice
Text: The induction of paw edema in rodents by injection of arachidonic acid has been used as an experimental model for inflammation [Calhoun, W., et al., Agents and Actions, 21, 306 (1987)]. Prior administration of non-steroidalanti-inflammatory drugs (NSAIDs) in many cases leads to a dose related inhibition of the edematous response which may be considered a predictor of clinical efficacy.
as §3

[9] = test system: intraocular pressure; experiment: Reduction of intraocular pressure (anti-glaucoma); assay type: in vivo, rabbits; conditions: 50 μl drop of a 1% emulsion into rabbit eye
Description: Reduction of intraocular pressure in rabbits was determined by the addition of a 50 μl drop of a 1% emulsion of the cannabinoid into the rabbit eye. This test is a measure of anti-glaucoma activity.

[10] = test system: cataleptic response; experiment: Cataleptic effects, ring test; assay type: in vivo, mouse; conditions: 5 min test period, ± SD
Description: The lack of CNS activity for the compounds described herein may be seen from the data shown in Table V. This was measured by the so-called "ring test" [Pertwee, R. G., et al., J. Pharmacol., 46, 753 (1972)] in which the cataleptic effects of cannabinoids can be quantitated. The compounds produced little or no response when compared with the parent drug.
The cataleptic response was measured using the ring test. Mice were placed on a horizontal wire ring 5.5 cm in diameter, which was attached to a 16 cm vertical rod. The hind paws and fore paws were placed at opposite sides of the ring. It is important that the ambient temperature is maintained at 30° C. and that the environment be free of auditory stimuli and bright lights. The criteria for immobility are detailed by Pertwee. The response is calculated as the fraction of time the mouse is immobile over a 5 min. test period. Measurements were always done between 2 and 4 p.m. and the animals were used only once.

For `CCCCCc1cc(O)c2c(c1)OC(C)(C)[C@@H]1CCC(C(=O)O)=C[C@@H]21` [Compound 2, (3R,4R)-delta-1-tetrahydrocannabinol-7-oic acid], the analgetic activity [1] is given as “analgetic”, the antiinflammatory activity [1] is given as “antiinflammatory” and the psychotropic effects [1] is given as “no psychotropic effects”.

For `CCCCCCC(C)(C)c1cc(O)c2c(c1)OC(C)(C)[C@H]1CC=C(CO)C[C@H]21` [HU-211, 7-hydroxy-delta-6-tetrahydrocannabinoldimethylheptyl, reference compound], the “Survival rate (survivors out of total)” value [2] is listed as 11/16, the analgetic activity [1] is listed as “analgetic” and the anti-NMDA activity [1] is listed as “anti-NMDA”. The antiemetic activity [1] was “entiemetic”, the “protection against forebrain ischemia” value [3] was “shown to protect against forebrain ischemia” and the “adhering cells, percent of control” value ([4]; 0.05 mg/kg oral) was 124% of control. The “number of adhering cells” value ([4]; 0.05 mg/kg oral) was 1.09 ± 0.08 number of adhering cells × 10^-6, the “adhering cells, percent of control” value ([4]; 0.10 mg/kg oral) was 50% of control and the “number of adhering cells” value ([4]; 0.10 mg/kg oral) was 0.44 ± 0.03 number of adhering cells × 10^-6. For the same molecule, the “adhering cells, percent of control” value ([4]; 0.50 mg/kg oral) was 73% of control, the “number of adhering cells” value ([4]; 0.50 mg/kg oral) was 0.64 ± 0.06 number of adhering cells × 10^-6 and the “adhering cells, percent of control” value ([4]; 1.00 mg/kg oral) was 67% of control. The “number of adhering cells” value ([4]; 1.00 mg/kg oral) was 0.59 ± 0.06 number of adhering cells × 10^-6, the “Inhibition of PAF-Induced Paw Edema” value ([5]; 0.5 mg/kg) was 37.5% and the “Inhibition of PAF-Induced Paw Edema” value ([5]; 1.0 mg/kg) was 21.9%. For the same molecule, the “percent change in latency” value ([6]; 0.25 mg/kg oral) was 30.0%, the “percent change in latency” value ([6]; 0.50 mg/kg oral) was 72.5% and the “percent change in latency” value ([6]; 1.0 mg/kg oral) was -10.2%. For the same molecule, the “Survival rate (survivors out of total)” value [7] was 6/10.

For `CCCCCc1cc(O)c2c(c1)OC(C)(C)[C@@H]1CC=C(C(=O)O)C[C@@H]21` [Δ^6 -THC-7-oic acid, reference compound], the “Inhibition of PAF-Induced Paw Edema” value ([5]; 0.5 mg/kg) was “N.S”, the “Inhibition of PAF-Induced Paw Edema” value ([5]; 1.0 mg/kg) was “N.S” and the “Inhibition of PAF-Induced Paw Edema” value ([5]; 40.0 mg/kg) was 50.2%.

In the case of `CCCCCCC(C)(C)c1cc(O)c2c(c1)OC(C)(C)[C@H]1CC=C(C(=O)O)C[C@H]21` [HU-235], the “Inhibition of Arachidonic Acid-Induced Paw Edema” value ([8]; 0.050 mg/kg, vs vehicle treated controls, 30 min after arachidonate) is reported as 42.1%, the “reduction of arachidonic acid paw edema” value ([8]; result in words) is reported as “effective in reducing paw edema” and the “Survival rate (survivors out of total)” value [2] is reported as 7/10. For the same molecule, the “reduction of intraocular pressure” value [9] was “Significant reduction”, the “protection against forebrain ischemia” value [3] was “shown to protect against forebrain ischemia” and the “adhering cells, percent of control” value ([4]; 0.01 mg/kg oral) was 106% of control. The “number of adhering cells” value ([4]; 0.01 mg/kg oral) was 1.34 ± 0.14 number of adhering cells × 10^-6, the “adhering cells, percent of control” value ([4]; 0.05 mg/kg oral) was 102% of control and the “number of adhering cells” value ([4]; 0.05 mg/kg oral) was 1.29 ± 0.05 number of adhering cells × 10^-6. For the same molecule, the “adhering cells, percent of control” value ([4]; 0.10 mg/kg oral) was 110% of control, the “number of adhering cells” value ([4]; 0.10 mg/kg oral) was 1.38 ± 0.17 number of adhering cells × 10^-6 and the “adhering cells, percent of control” value ([4]; 0.50 mg/kg oral) was 116% of control. The “number of adhering cells” value ([4]; 0.50 mg/kg oral) was 1.46 ± 0.05 number of adhering cells × 10^-6, the “adhering cells, percent of control” value ([4]; 1.00 mg/kg oral) was 56% of control and the “number of adhering cells” value ([4]; 1.00 mg/kg oral) was 0.70 ± 0.12 number of adhering cells × 10^-6. The “cataleptic response (fraction of time immobile)” value ([10]; 0.25 mg/kg) was 12.3 ± 10.3, the “cataleptic response (fraction of time immobile)” value ([10]; 0.5 mg/kg) was 13.8 ± 7.9 and the “cataleptic response (fraction of time immobile)” value ([10]; 1.0 mg/kg) was 10.4 ± 10.6. For the same molecule, the “cataleptic response (fraction of time immobile)” value ([10]; 4.0 mg/kg) was 8.7 ± 5.6, the “Inhibition of PAF-Induced Paw Edema” value ([5]; 0.05 mg/kg) was 44.4% and the “Inhibition of PAF-Induced Paw Edema” value ([5]; 0.10 mg/kg) was 38.7%. For the same molecule, the “Inhibition of PAF-Induced Paw Edema” value ([5]; 0.25 mg/kg) was 31.9%, the “Inhibition of PAF-Induced Paw Edema” value ([5]; 0.5 mg/kg) was 60.1% and the “activity in PAF-induced edema” value ([5]; result in words) was “active”. For the same molecule, the “percent change in latency” value ([6]; 0.02 mg/kg oral) was 10.3%, the “percent change in latency” value ([6]; 0.05 mg/kg oral) was 61.7% and the “percent change in latency” value ([6]; 0.10 mg/kg oral) was 49.5%. The “percent change in latency” value ([6]; 0.25 mg/kg oral) was 61.5%, the “percent change in latency” value ([6]; 0.50 mg/kg oral) was 61.5% and the “percent change in latency” value ([6]; 1.0 mg/kg oral) was 51.7%. For the same molecule, the “percent change in latency” value ([6]; 2.0 mg/kg oral) was 14.7% and the “Survival rate (survivors out of total)” value [7] was 8/12.

In the case of `CCCCCc1cc(O)c2c(c1)OC(C)(C)[C@@H]1CCC(C)=C[C@@H]21` [Δ^1 -THC, (3R,4R)-delta-1-tetrahydrocannabinol, reference compound], the “cataleptic response (fraction of time immobile)” value ([10]; 40 mg/kg) is reported as 48.9 ± 16.

In the case of THC-7-oic Acid [reference compound], the “adhering cells, percent of control” value ([4]; 20 mg/kg oral) is reported as 90.6% of control, the “number of adhering cells” value ([4]; 20 mg/kg oral) is reported as 0.67 ± 0.02 number of adhering cells × 10^-6 and the “adhering cells, percent of control” value ([4]; 40 mg/kg oral) is reported as 67.9% of control. The “number of adhering cells” value ([4]; 40 mg/kg oral) was 0.55 ± 0.22 number of adhering cells × 10^-6.

Reference: patent US5538993A, “Certain tetrahydrocannabinol-7-oic acid derivatives” (priority 1991, dated 1996)
